{"source": "patent US12215140B2", "about": "“Method of stabilizing protein contained in specimen and solution for stabilizing protein contained in specimen” (EIKEN KAGAKU KABUSHIKI KAISHA, priority 2018, dated 2025)", "system": "hemoglobin-haptoglobin complex", "test": "Stability of hemoglobin (as hemoglobin-haptoglobin complex) in samples preserved at 37° C. in preservation solution containing 1 unit/L haptoglobin, Hb measured by latex agglutination method (Examples 1 to 7)", "design": "species or system human", "conditions": "37° C.", "description": "Preservation solutions were prepared with the addition of 40 mmol/L HEPES (pH 6.8), 0.1% BSA, 0.1% NaN3, 1 unit/L haptoglobin, and 0 to 100 mmol/L phenylboronic acid. Samples obtained by adding hemoglobin-added fecal specimens to the preservation solutions so that the fecal concentration would be 0.5% were preserved at 37° C. for 0, 7, 14, and 21 days. The fecal specimens were added with hemoglobin having an amount such that the hemoglobin concentration in the samples would be about 300 μg/L. Instead of the fecal specimens to which hemoglobin was added, samples containing no fecal specimens, in which hemoglobin was added to the preservation solutions so that the hemoglobin concentration in the samples would be 300 μg/L, were similarly preserved. The hemoglobin (Hb) concentrations (μg/L) in the preserved samples were measured by the latex agglutination method.\nThe concentrations of hemoglobin were measured using “OC-Hemodia (registered trademark) Auto III ‘EIKEN’” (available from EIKEN CHEMICAL CO., LTD.) as a measurement reagent and “OC-sensor DIANA” (available from EIKEN CHEMICAL CO., LTD.) as a measurement device. The above measurement reagent contains latex particles immobilizing an anti-human hemoglobin rabbit polyclonal antibody.\nFrom the measured concentrations of hemoglobin, the recovery ratios (%) were calculated with respect to the hemoglobin concentrations immediately after the fecal specimens were added to the preservation solutions (i.e., concentrations 0 days after the fecal specimens were added).\n(§1) For comparative examples, preservation solutions to which no arylboronic acid was added were prepared, and testing was conducted in the same manner.\n(§2) The concentration of phenylboronic acid in the preservation solutions of Example 1 was fixed to 15 mmol/L, preservation solutions to which a sugar (sorbitol, sucrose, trehalose, glucose, fructose, or mannitol) was further added at 50 mmol/L or 100 mmol/L or preservation solutions to which no sugar was added were prepared, and testing was conducted in the same manner as in Example 1. For comparative examples, preservation solutions to which the phenylboronic acid and sugar were not added were prepared, and testing was conducted in the same manner.\nPreservation solutions in which sorbitol, sucrose, trehalose, glucose, fructose, or mannitol was added at 100 mmol/L to the preservation solutions of Example 1 containing no phenylboronic acid were prepared, and testing was conducted in the same manner as in Example 1. For comparison, the same testing was conducted without adding these sugars.\nas §2, with “sorbitol” for “a sugar (sorbitol, sucrose, trehalose, glucose, fructose, or mannitol)”, “was” for “was further”, “10 to 500” for “50”, “sucrose was added at 10 to 250” for “100”\nas §1", "key": {"[1]": {"conditions": "Feces 1, sugar 50 mmol/L + phenylboronic acid 15 mmol/L, 0 days"}, "[2]": {"conditions": "Feces 1, sugar 50 mmol/L + phenylboronic acid 15 mmol/L, 7 days"}, "[3]": {"conditions": "Feces 1, sugar 50 mmol/L + phenylboronic acid 15 mmol/L, 14 days"}, "[4]": {"conditions": "Feces 1, sugar 100 mmol/L + phenylboronic acid 15 mmol/L, 0 days"}, "[5]": {"conditions": "Feces 1, sugar 100 mmol/L + phenylboronic acid 15 mmol/L, 0 days (Table 7)"}, "[6]": {"conditions": "Feces 1, sugar 100 mmol/L + phenylboronic acid 15 mmol/L, 7 days"}, "[7]": {"conditions": "Feces 1, sugar 100 mmol/L + phenylboronic acid 15 mmol/L, 7 days (Table 7)"}, "[8]": {"conditions": "Feces 1, sugar 100 mmol/L + phenylboronic acid 15 mmol/L, 14 days"}, "[9]": {"conditions": "Feces 1, sugar 100 mmol/L + phenylboronic acid 15 mmol/L, 14 days (Table 7)"}, "[10]": {"conditions": "Feces 1, sugar 100 mmol/L + phenylboronic acid 50 mmol/L, 0 days"}, "[11]": {"conditions": "Feces 1, sugar 100 mmol/L + phenylboronic acid 50 mmol/L, 7 days"}, "[12]": {"conditions": "Feces 1, sugar 100 mmol/L + phenylboronic acid 50 mmol/L, 14 days"}, "[13]": {"conditions": "Feces 1, sugar 100 mmol/L, no phenylboronic acid, 0 days"}, "[14]": {"conditions": "Feces 1, sugar 100 mmol/L, no phenylboronic acid, 7 days"}, "[15]": {"conditions": "Feces 1, sugar 100 mmol/L, no phenylboronic acid, 14 days"}, "[16]": {"conditions": "Feces 2, sugar 50 mmol/L + phenylboronic acid 15 mmol/L, 0 days"}, "[17]": {"conditions": "Feces 2, sugar 50 mmol/L + phenylboronic acid 15 mmol/L, 7 days"}, "[18]": {"conditions": "Feces 2, sugar 50 mmol/L + phenylboronic acid 15 mmol/L, 14 days"}, "[19]": {"conditions": "Feces 2, sugar 100 mmol/L + phenylboronic acid 15 mmol/L, 0 days"}, "[20]": {"conditions": "Feces 2, sugar 100 mmol/L + phenylboronic acid 15 mmol/L, 0 days (Table 7)"}, "[21]": {"conditions": "Feces 2, sugar 100 mmol/L + phenylboronic acid 15 mmol/L, 7 days"}, "[22]": {"conditions": "Feces 2, sugar 100 mmol/L + phenylboronic acid 15 mmol/L, 7 days (Table 7)"}, "[23]": {"conditions": "Feces 2, sugar 100 mmol/L + phenylboronic acid 15 mmol/L, 14 days"}, "[24]": {"conditions": "Feces 2, sugar 100 mmol/L + phenylboronic acid 15 mmol/L, 14 days (Table 7)"}, "[25]": {"conditions": "Feces 2, sugar 100 mmol/L + phenylboronic acid 50 mmol/L, 0 days"}, "[26]": {"conditions": "Feces 2, sugar 100 mmol/L + phenylboronic acid 50 mmol/L, 7 days"}, "[27]": {"conditions": "Feces 2, sugar 100 mmol/L + phenylboronic acid 50 mmol/L, 14 days"}, "[28]": {"conditions": "Feces 2, sugar 100 mmol/L, no phenylboronic acid, 0 days"}, "[29]": {"conditions": "Feces 2, sugar 100 mmol/L, no phenylboronic acid, 7 days"}, "[30]": {"conditions": "Feces 2, sugar 100 mmol/L, no phenylboronic acid, 14 days"}}}
{"smiles": "OC[C@@H](O)[C@@H](O)[C@H](O)[C@H](O)CO", "note": "[Mannitol, mannitol]", "values": [{"measurement": "Hb concentration", "setting": "[1]", "value": 288, "unit": "µg/L"}, {"measurement": "Recovery ratio with respect to Hb concentration after 0 days", "setting": "[1]", "value": 100, "unit": "%"}, {"measurement": "Hb concentration", "setting": "[2]", "value": 278, "unit": "µg/L"}, {"measurement": "Recovery ratio with respect to Hb concentration after 0 days", "setting": "[2]", "value": 96, "unit": "%"}, {"measurement": "Hb concentration", "setting": "[3]", "value": 270, "unit": "µg/L"}, {"measurement": "Recovery ratio with respect to Hb concentration after 0 days", "setting": "[3]", "value": 94, "unit": "%"}, {"measurement": "Hb concentration", "setting": "[4]", "value": 281, "unit": "µg/L"}, {"measurement": "Recovery ratio with respect to Hb concentration after 0 days", "setting": "[4]", "value": 100, "unit": "%"}, {"measurement": "Hb concentration", "setting": "[5]", "value": 301, "unit": "µg/L"}, {"measurement": "Recovery ratio with respect to Hb after 0 days", "setting": "[5]", "value": 100, "unit": "%"}, {"measurement": "Hb concentration", "setting": "[6]", "value": 279, "unit": "µg/L"}, {"measurement": "Recovery ratio with respect to Hb concentration after 0 days", "setting": "[6]", "value": 99, "unit": "%"}, {"measurement": "Hb concentration", "setting": "[7]", "value": 288, "unit": "µg/L"}, {"measurement": "Recovery ratio with respect to Hb after 0 days", "setting": "[7]", "value": 96, "unit": "%"}, {"measurement": "Hb concentration", "setting": "[8]", "value": 276, "unit": "µg/L"}, {"measurement": "Recovery ratio with respect to Hb concentration after 0 days", "setting": "[8]", "value": 98, "unit": "%"}, {"measurement": "Hb concentration", "setting": "[9]", "value": 287, "unit": "µg/L"}, {"measurement": "Recovery ratio with respect to Hb after 0 days", "setting": "[9]", "value": 95, "unit": "%"}, {"measurement": "Hb concentration", "setting": "[10]", "value": 270, "unit": "µg/L"}, {"measurement": "Recovery ratio with respect to Hb after 0 days", "setting": "[10]", "value": 100, "unit": "%"}, {"measurement": "Hb concentration", "setting": "[11]", "value": 257, "unit": "µg/L"}, {"measurement": "Recovery ratio with respect to Hb after 0 days", "setting": "[11]", "value": 95, "unit": "%"}, {"measurement": "Hb concentration", "setting": "[12]", "value": 255, "unit": "µg/L"}, {"measurement": "Recovery ratio with respect to Hb after 0 days", "setting": "[12]", "value": 95, "unit": "%"}, {"measurement": "Hb concentration", "setting": "[13]", "value": 276, "unit": "µg/L"}, {"measurement": "Recovery ratio with respect to Hb concentration after 0 days", "setting": "[13]", "value": 100, "unit": "%"}, {"measurement": "Hb concentration", "setting": "[14]", "value": 156, "unit": "µg/L"}, {"measurement": "Recovery ratio with respect to Hb concentration after 0 days", "setting": "[14]", "value": 57, "unit": "%"}, {"measurement": "Hb concentration", "setting": "[15]", "value": 130, "unit": "µg/L"}, {"measurement": "Recovery ratio with respect to Hb concentration after 0 days", "setting": "[15]", "value": 47, "unit": "%"}, {"measurement": "Hb concentration", "setting": "[16]", "value": 296, "unit": "µg/L"}, {"measurement": "Recovery ratio with respect to Hb concentration after 0 days", "setting": "[16]", "value": 100, "unit": "%"}, {"measurement": "Hb concentration", "setting": "[17]", "value": 291, "unit": "µg/L"}, {"measurement": "Recovery ratio with respect to Hb concentration after 0 days", "setting": "[17]", "value": 98, "unit": "%"}, {"measurement": "Hb concentration", "setting": "[18]", "value": 280, "unit": "µg/L"}, {"measurement": "Recovery ratio with respect to Hb concentration after 0 days", "setting": "[18]", "value": 95, "unit": "%"}, {"measurement": "Hb concentration", "setting": "[19]", "value": 290, "unit": "µg/L"}, {"measurement": "Recovery ratio with respect to Hb concentration after 0 days", "setting": "[19]", "value": 100, "unit": "%"}, {"measurement": "Hb concentration", "setting": "[20]", "value": 298, "unit": "µg/L"}, {"measurement": "Recovery ratio with respect to Hb after 0 days", "setting": "[20]", "value": 100, "unit": "%"}, {"measurement": "Hb concentration", "setting": "[21]", "value": 290, "unit": "µg/L"}, {"measurement": "Recovery ratio with respect to Hb concentration after 0 days", "setting": "[21]", "value": 100, "unit": "%"}, {"measurement": "Hb concentration", "setting": "[22]", "value": 284, "unit": "µg/L"}, {"measurement": "Recovery ratio with respect to Hb after 0 days", "setting": "[22]", "value": 95, "unit": "%"}, {"measurement": "Hb concentration", "setting": "[23]", "value": 286, "unit": "µg/L"}, {"measurement": "Recovery ratio with respect to Hb concentration after 0 days", "setting": "[23]", "value": 99, "unit": "%"}, {"measurement": "Hb concentration", "setting": "[24]", "value": 284, "unit": "µg/L"}, {"measurement": "Recovery ratio with respect to Hb after 0 days", "setting": "[24]", "value": 95, "unit": "%"}, {"measurement": "Hb concentration", "setting": "[25]", "value": 268, "unit": "µg/L"}, {"measurement": "Recovery ratio with respect to Hb after 0 days", "setting": "[25]", "value": 100, "unit": "%"}, {"measurement": "Hb concentration", "setting": "[26]", "value": 263, "unit": "µg/L"}, {"measurement": "Recovery ratio with respect to Hb after 0 days", "setting": "[26]", "value": 98, "unit": "%"}, {"measurement": "Hb concentration", "setting": "[27]", "value": 274, "unit": "µg/L"}, {"measurement": "Recovery ratio with respect to Hb after 0 days", "setting": "[27]", "value": 102, "unit": "%"}, {"measurement": "Hb concentration", "setting": "[28]", "value": 284, "unit": "µg/L"}, {"measurement": "Recovery ratio with respect to Hb concentration after 0 days", "setting": "[28]", "value": 100, "unit": "%"}, {"measurement": "Hb concentration", "setting": "[29]", "value": 97, "unit": "µg/L"}, {"measurement": "Recovery ratio with respect to Hb concentration after 0 days", "setting": "[29]", "value": 34, "unit": "%"}, {"measurement": "Hb concentration", "setting": "[30]", "value": 81, "unit": "µg/L"}, {"measurement": "Recovery ratio with respect to Hb concentration after 0 days", "setting": "[30]", "value": 28, "unit": "%"}, {"measurement": "Hb concentration", "setting": "Feces 3, sugar 50 mmol/L + phenylboronic acid 15 mmol/L, 0 days", "value": 293, "unit": "µg/L"}]}
